Measurements as given in patent publication US10703756B2, “Pyrrolo[2,3-D]pyrimidinyl, pyrrolo[2,3-B]pyrazinyl, pyrrolo[2,3-B]pyridinyl acrylamides and epoxides thereof” (Pfizer Inc., priority 2015, dated 2020).

How the values were obtained:
[1] = target: T1, JAK3 enzyme (Homo sapiens, UniProt P52333); test: JAK Caliper Enzyme Assay at 4 μM ATP; format: biochemical
T1 sequence (P52333 1-1124): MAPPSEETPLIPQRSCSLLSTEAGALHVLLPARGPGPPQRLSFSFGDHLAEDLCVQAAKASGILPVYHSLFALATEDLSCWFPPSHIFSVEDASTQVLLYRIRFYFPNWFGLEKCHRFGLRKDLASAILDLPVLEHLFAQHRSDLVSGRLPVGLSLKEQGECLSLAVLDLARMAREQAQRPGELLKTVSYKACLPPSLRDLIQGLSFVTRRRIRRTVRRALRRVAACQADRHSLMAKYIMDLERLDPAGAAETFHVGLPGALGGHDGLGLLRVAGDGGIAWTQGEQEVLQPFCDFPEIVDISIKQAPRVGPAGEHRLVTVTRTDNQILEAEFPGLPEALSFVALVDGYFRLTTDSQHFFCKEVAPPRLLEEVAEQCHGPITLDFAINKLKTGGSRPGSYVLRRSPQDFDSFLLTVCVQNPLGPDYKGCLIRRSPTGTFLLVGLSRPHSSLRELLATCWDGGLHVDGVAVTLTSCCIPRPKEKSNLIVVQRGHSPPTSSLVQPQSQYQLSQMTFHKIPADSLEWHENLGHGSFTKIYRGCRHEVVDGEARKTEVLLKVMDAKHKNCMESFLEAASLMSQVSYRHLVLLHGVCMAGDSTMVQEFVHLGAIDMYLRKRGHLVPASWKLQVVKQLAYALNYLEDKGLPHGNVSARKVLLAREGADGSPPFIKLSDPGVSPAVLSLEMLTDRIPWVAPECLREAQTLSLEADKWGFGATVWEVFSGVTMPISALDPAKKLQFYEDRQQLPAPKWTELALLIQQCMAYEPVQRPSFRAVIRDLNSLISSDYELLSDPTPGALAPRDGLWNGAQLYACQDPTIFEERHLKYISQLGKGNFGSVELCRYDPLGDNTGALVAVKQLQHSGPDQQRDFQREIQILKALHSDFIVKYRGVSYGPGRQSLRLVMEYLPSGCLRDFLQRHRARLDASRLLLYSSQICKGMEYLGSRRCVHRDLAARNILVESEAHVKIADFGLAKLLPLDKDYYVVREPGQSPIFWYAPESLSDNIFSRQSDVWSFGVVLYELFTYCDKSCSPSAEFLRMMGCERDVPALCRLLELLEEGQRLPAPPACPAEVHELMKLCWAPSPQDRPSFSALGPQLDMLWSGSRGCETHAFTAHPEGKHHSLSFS
Experimental: (§1) Test article was solubilized in dimethyl sulfoxide (DMSO) to a stock concentration of 30 mM. An 11-point half log dilution series was created in DMSO with a top concentration of 600 μM. […] Test article and assay controls were added to a 384-well plate. […] Enzyme concentrations and incubation times were optimized for each new enzyme preps and were modified slightly over time to ensure 20%-30% phosphorylation. […] The assay plates were placed on a Caliper Life Science Lab Chip 3000 (LC3000) instrument, and each well was sampled using appropriate separation conditions to measure the unphosphorylated and phosphorylated peptide.

[2] = target: T1, JAK3 enzyme; test: JAK Caliper Enzyme Assay at 1 mM ATP; format: biochemical
Experimental: as §1

Row | IC50 [1] [nM] | IC50 [2] [nM] | SMILES
1 | 46.7 | 4840 | C=CC(=O)N1CCN(c2cnc3[nH]cc(C(=O)N[C@@H](COC)c4ccccc4)c3n2)CC1(C)C [Example 138, 2-(4-acryloyl-3,3-dimethylpiperazin-1-yl)-N-[(1R)-2-methoxy-1-phenylethyl]-5H-pyrrolo[2,3-b]pyrazine-7-carboxamide]
2 | 5.28 | 766 | C=CC(=O)N1CC[C@@H](COc2cnc3[nH]cc(C(=O)N[C@@H](C)COC)c3n2)C1 (single isomer, unassigned) [Example 12]
3 | 7.76 | 769 | C=CC(=O)N1CCN(c2cnc3[nH]cc(C(=O)N[C@@H]4COc5ccccc5C4)c3n2)CC1(C)C [Example 168, 2-(4-acryloyl-3,3-dimethylpiperazin-1-yl)-N-[(3S)-3,4-dihydro-2H-chromen-3-yl]-5H-pyrrolo[2,3-b]pyrazine-7-carboxamide]
4 | 82.3 | > 10000 | C=CC(=O)N1CC(Nc2cnc3[nH]cc(C(=O)NCC)c3n2)C2(CC2)C1 (stereo not shown) [Example 244, 2-[(5-acryloyl-5-azaspiro[2.4]hept-7-yl)amino]-N-ethyl-5H-pyrrolo[2,3-b]pyrazine-7-carboxamide]
5 | 10.7 | 957 | C=CC(=O)N1CCN(c2cnc3[nH]cc(C(=O)NC(CO)c4ccc(F)cc4)c3n2)CC1(C)C (racemic) [Example 165, Racemic-2-(4-acryloyl-3,3-dimethylpiperazin-1-yl)-N-[1-(4-fluorophenyl)-2-hydroxyethyl]-5H-pyrrolo[2,3-b]pyrazine-7-carboxamide]
6 | 4.31 | 798 | C=CC(=O)N1C[C@H](Nc2cnc3[nH]cc(C(=O)NCC)c3n2)C[C@H]1COCC [Example 250, 2-{[(3R,5S)-1-acryloyl-5-(ethoxymethyl)pyrrolidin-3-yl]amino}-N-ethyl-5H-pyrrolo[2,3-b]pyrazine-7-carboxamide]
7 | 15.5 | 1490 | C=CC(=O)N1CCN(c2cnc3[nH]cc(C(=O)NCC4(O)CCC(F)(F)CC4)c3n2)CC1(C)C [Example 291, 2-(4-acryloyl-3,3-dimethylpiperazin-1-yl)-N-[(4,4-difluoro-1-hydroxycyclohexyl)methyl]-5H-pyrrolo[2,3-b]pyrazine-7-carboxamide]
8 | 3.27 | 463 | C=CC(=O)N1CCC(Oc2cnc3[nH]cc(C(=O)N[C@@H]4C[C@H]4C(F)(F)F)c3n2)CC1 [Example 216, 2-[(1-acryloylpiperidin-4-yl)oxy]-N-[(1R,2R)-2-(trifluoromethyl)cyclopropyl]-5H-pyrrolo[2,3-b]pyrazine-7-carboxamide]
9 | 11.6 | 2180 | C=CC(=O)N1C[C@H](Nc2cnc3[nH]cc(C(=O)NCC)c3n2)C[C@@H]1COC [Example 262, 2-{[(3R,5R)-1-acryloyl-5-(methoxymethyl)pyrrolidin-3-yl]amino}-N-ethyl-5H-pyrrolo[2,3-b]pyrazine-7-carboxamide]
10 | 1.29 | 134 | C=CC(=O)N1CCC(Nc2cnc3[nH]cc(C(=O)NCCC(F)(F)F)c3n2)CC1C (racemic) [Example 22, Cis-racemic 2-{[1-acryloyl-2-methylpiperidin-4-yl]amino}-N-(3,3,3-trifluoropropyl)-5H-pyrrolo[2,3-b]pyrazine-7-carboxamide]
11 | 12.4 | 2530 | C=CC(=O)N1CCN(c2cnc3[nH]cc(C(=O)N[C@@H](C)COCc4ccccc4)c3n2)CC1(C)C [Example 134, 2-(4-acryloyl-3,3-dimethylpiperazin-1-yl)-N-[(2S)-1-(benzyloxy)propan-2-yl]-5H-pyrrolo[2,3-b]pyrazine-7-carboxamide]
12 | 14.7 | 2550 | C=CC(=O)N1CCC(Oc2cnc3[nH]cc(-c4n[nH]c(C(C)C)n4)c3n2)CC1 [Example 116, 1-[4-({7-[5-(Propan-2-yl)-1H-1,2,4-triazol-3-yl]-5H-pyrrolo[2,3-b]pyrazin-2-yl}oxy)piperidin-1-yl]prop-2-en-1-one]
13 | 43.7 | 4030 | C=CC(=O)N1CCC(Oc2cnc3[nH]cc(C(=O)NCC4CCC4)c3c2)CC1 [Example 345, 5-[(1-acryloylpiperidin-4-yl)oxy]-N-(cyclobutylmethyl)-1H-pyrrolo[2,3-b]pyridine-3-carboxamide]
14 | 10.1 | 1320 | C=CC(=O)N1CC[C@H](OC)[C@H](Nc2cnc3[nH]cc(C(=O)N[C@H](C)COC)c3n2)C1 (single isomer, unassigned) [Example 6]
15 | 7.82 | 1880 | C=CC(=O)N1CCC(Oc2cnc3[nH]cc(-c4ncn(CC)n4)c3n2)CC1 [Example 125, 1-(4-{[7-(1-Ethyl-1H-1,2,4-triazol-3-yl)-5H-pyrrolo[2,3-b]pyrazin-2-yl]oxy}piperidin-1-yl)prop-2-en-1-one]
16 | 259 | > 10000 | C=CC(=O)N1C[C@H](Nc2cnc3[nH]cc(C(=O)NCC)c3n2)[C@H](C2CC2)C1 [Example 261, 2-{[(3R,4R)-1-acryloyl-4-cyclopropylpyrrolidin-3-yl]amino}-N-ethyl-5H-pyrrolo[2,3-b]pyrazine-7-carboxamide]
17 | 72 | 7680 | C=CC(=O)N1C[C@@H](C)[C@@H](Nc2cnc3[nH]cc(C(=O)NCCOC)c3n2)C1 (stereo in doubt) [Example 253, 2-[(1-acryloyl-4-methylpyrrolidin-3-yl)amino]-N-(2-methoxyethyl)-5H-pyrrolo[2,3-b]pyrazine-7-carboxamide]
18 | 5.82 | 632 | C=CC(=O)N1CCN(c2cnc3[nH]cc(C(=O)NC(CO)c4cccc(F)c4)c3n2)CC1(C)C (racemic) [Example 136, Racemic-2-(4-acryloyl-3,3-dimethylpiperazin-1-yl)-N-[1-(3-fluorophenyl)-2-hydroxyethyl]-5H-pyrrolo[2,3-b]pyrazine-7-carboxamide]
19 | 41.7 | 3710 | C=CC(=O)N1CCN(c2cnc3[nH]cc(C(=O)N[C@@H](C)COc4ccccc4)c3n2)CC1(C)C [Example 147, 2-(4-acryloyl-3,3-dimethylpiperazin-1-yl)-N-[(2S)-1-phenoxypropan-2-yl] 5H-pyrrolo[2,3-b]pyrazine-7-carboxamide]
20 | 2.77 | 632 | C=CC(=O)N1CCC(COc2cnc3[nH]cc(C(=O)N[C@@H](C)COC)c3n2)C1 (mixture of isomers) [Example 10, Racemic-2-[(1-acryloylpyrrolidin-3-yl)methoxyl]-N-[(2S)-1-methoxypropan-2-yl]-5H-pyrrolo[2,3-b]pyrazine-7-carboxamide]
21 | 31.4 | 3280 | C=CC(=O)N1CC[C@H](COc2cnc3[nH]cc(C(=O)N[C@H](C)COC)c3n2)C1 (single isomer, unassigned) [Example 15]
22 | 6.31 | 865 | C=CC(=O)N1CCN(c2cnc3[nH]cc(C(=O)N[C@@H]4COC[C@@H]4n4cc(F)cn4)c3n2)CC1(C)C [Example 159, 2-(4-acryloyl-3,3-dimethylpiperazin-1-yl)-N-[(3S,4R)-4-(4-fluoro-1H-pyrazol-1-yl)tetrahydrofuran-3-yl]-5H-pyrrolo[2,3-b]pyrazine-7-carboxamide]
23 | 6.19 | 581 | C=CC(=O)N1CCN(c2cnc3[nH]cc(C(=O)N[C@@H](c4ccccc4)C(C)(C)O)c3n2)CC1(C)C [Example 162, 2-(4-acryloyl-3,3-dimethylpiperazin-1-yl)-N-[(1S)-2-hydroxy-2-methyl-1-phenylpropyl]-5H-pyrrolo[2,3-b]pyrazine-7-carboxamide]
